This is an account of results in ChEMBL document CHEMBL4257451, “Synergism of fused bicyclic 2-aminothiazolyl compounds with polymyxin B against Klebsiella pneumoniae” (Medchemcomm, 2017).

Series [1] deals with Klebsiella pneumoniae. The experiment in a line: Growth inhibition of Klebsiella pneumoniae SIPI-KPN-1712 by broth microdilution method. The note with it: in vitro. Type of series: organism-based. A general note: Broth dilution looks for growth in wells or tubes with falling amounts of substance.
Series [2] concerns Klebsiella pneumoniae. The experiment in a line: Synergistic antibacterial activity against Klebsiella pneumoniae SIPI-KPN-1712 assessed as polymixin B MIC at 4 ug/ml by broth microdilution method (reference value: 32 ug/ml). Type of series: functional.
For series [3], the system named is Klebsiella pneumoniae. The experiment in a line: Synergistic antibacterial activity against Klebsiella pneumoniae SIPI-KPN-1712 assessed as fractional Inhibitory concentration index in presence of polymixin B at 2 ug/ml by broth microdilution method. In kind it is functional.
For series [4], the system named is Klebsiella pneumoniae. The experiment in a line: Synergistic antibacterial activity against Klebsiella pneumoniae SIPI-KPN-1712 assessed as fold reduction in polymixin B MIC at 4 ug/ml by broth microdilution method relative to polymixin B alone. In kind it is functional.

On to `OC1CCCc2nc(Nc3ccc(F)cc3)sc21` (configuration not stated), for which the MIC was greater than 128 µg/mL in the series with Klebsiella pneumoniae [1] and 32 µg/mL in the series with Klebsiella pneumoniae [2]. The “fractional inhibitory concentration index (FICI)” value in the series with Klebsiella pneumoniae [3] is 1.03.

Regarding `Clc1ccc(Nc2nc3ccc(Cl)cc3s2)cc1`, the MIC in the series with Klebsiella pneumoniae [1] was greater than 128 µg/mL; in the series on Klebsiella pneumoniae [2], 32 µg/mL. Moreover, the “fractional inhibitory concentration index (FICI)” value in the series with Klebsiella pneumoniae [3] amounted to 1.03.

Regarding `COC1CCCc2nc(Nc3ccccc3C)sc21` (configuration not stated), the MIC in the series with Klebsiella pneumoniae [1] was greater than 128 µg/mL; with Klebsiella pneumoniae [2] it was 32 µg/mL. Further, in the series on Klebsiella pneumoniae [3], the “fractional inhibitory concentration index (FICI)” value is 1.03.

As for `COC1CCCc2nc(Nc3ccccc3C(F)(F)F)sc21` (configuration not stated), the MIC in the series with Klebsiella pneumoniae [1] was greater than 128 µg/mL; with Klebsiella pneumoniae [2], 16 µg/mL. Further, the “fractional inhibitory concentration index (FICI)” value in the series on Klebsiella pneumoniae [3] turned out to be 0.53.

As for `COC1CCCc2nc(Nc3cccnc3)sc21` (configuration not stated), the values for the MIC against Klebsiella pneumoniae [1] and with Klebsiella pneumoniae [2] were greater than 128 µg/mL and 16 µg/mL, respectively. In addition, in the series with Klebsiella pneumoniae [3], the “fractional inhibitory concentration index (FICI)” value came to 0.53.

Regarding `COC1CCCc2nc(Nc3ccc(Cl)cc3Cl)sc21` (configuration not stated), the figures for the MIC against Klebsiella pneumoniae [1] and in the series on Klebsiella pneumoniae [2] were greater than 128 µg/mL and 8 µg/mL, respectively. The “fractional inhibitory concentration index (FICI)” value in the series with Klebsiella pneumoniae [3] came out at 0.28.

As to `COC1CCCc2nc(Nc3ccccc3Cl)sc21` (configuration not stated), the MIC against Klebsiella pneumoniae [1] was greater than 128 µg/mL; in the series on Klebsiella pneumoniae [2], 32 µg/mL. The “fractional inhibitory concentration index (FICI)” value with Klebsiella pneumoniae [3] is reported as 1.03.

Regarding `Clc1ccc(Nc2nc3ccccc3s2)cc1`, the results for the MIC against Klebsiella pneumoniae [1] and in the series on Klebsiella pneumoniae [2] were greater than 128 µg/mL and 32 µg/mL, respectively. Besides, the “fractional inhibitory concentration index (FICI)” value with Klebsiella pneumoniae [3] worked out at 1.03.

For the compound `COC1CCCc2nc(NCc3ccccc3)sc21` (configuration not stated), the MIC against Klebsiella pneumoniae [1] was greater than 128 µg/mL; with Klebsiella pneumoniae [2], 32 µg/mL. For the same compound, in the series with Klebsiella pneumoniae [3], the “fractional inhibitory concentration index (FICI)” value was found to be 1.03.

As for `COC1CCCc2nc(Nc3ccc4ccccc4n3)sc21` (configuration not stated), the MIC against Klebsiella pneumoniae [1] was greater than 128 µg/mL; in the series with Klebsiella pneumoniae [2], 32 µg/mL. Moreover, the “fractional inhibitory concentration index (FICI)” value in the series with Klebsiella pneumoniae [3] came to 1.03.

Turning to `COC1CCCc2nc(Nc3ccc(C(C)=O)cc3)sc21` (configuration not stated), the results for the MIC with Klebsiella pneumoniae [1] and with Klebsiella pneumoniae [2] were greater than 128 µg/mL and 16 µg/mL, respectively. Besides, the “fractional inhibitory concentration index (FICI)” value in the series on Klebsiella pneumoniae [3] amounted to 0.53.

Turning to `COC1CCCc2nc(Nc3ccc(NC(C)=O)cc3)sc21` (configuration not stated), the results for the MIC against Klebsiella pneumoniae [1] and in the series with Klebsiella pneumoniae [2] were greater than 128 µg/mL and 32 µg/mL, respectively. Moreover, the “fractional inhibitory concentration index (FICI)” value in the series on Klebsiella pneumoniae [3] came out at 1.03.

In the case of `COC1CCCc2nc(Nc3ccc(I)cc3)sc21` (configuration not stated), the MIC is greater than 128 µg/mL with Klebsiella pneumoniae [1] and 16 µg/mL in the series on Klebsiella pneumoniae [2]. The “fractional inhibitory concentration index (FICI)” value in the series with Klebsiella pneumoniae [3] was 0.53.

For the compound `Cc1ccc(Nc2nc3c(s2)C(O)CCC3)cc1` (configuration not stated), the values for the MIC in the series with Klebsiella pneumoniae [1] and in the series with Klebsiella pneumoniae [2] were greater than 128 µg/mL and 32 µg/mL, respectively. In the series with Klebsiella pneumoniae [3], the “fractional inhibitory concentration index (FICI)” value was determined as 1.03.

For `CCCOC1CCCc2nc(Nc3ccc(C)cc3)sc21` (configuration not stated), the values for the MIC against Klebsiella pneumoniae [1] and in the series with Klebsiella pneumoniae [2] were greater than 128 µg/mL and 16 µg/mL, respectively. Also, the “fractional inhibitory concentration index (FICI)” value with Klebsiella pneumoniae [3] was 0.53.

`Cc1ccc(Nc2nc3c(s2)C(OC(=O)n2ccnc2)CCC3)cc1` (configuration not stated): the MIC against Klebsiella pneumoniae [1] is greater than 128 µg/mL; in the series on Klebsiella pneumoniae [2] it was 32 µg/mL. In addition, the “fractional inhibitory concentration index (FICI)” value in the series with Klebsiella pneumoniae [3] is reported as 1.03.

With `COC1CCCc2nc(Nc3ccc4ccccc4c3)sc21` (configuration not stated), the figures for the MIC in the series on Klebsiella pneumoniae [1] and in the series on Klebsiella pneumoniae [2] were greater than 128 µg/mL and 32 µg/mL, respectively. The “fractional inhibitory concentration index (FICI)” value in the series on Klebsiella pneumoniae [3] came out at 1.03.

`CCOC1CCCc2nc(Nc3ccc4ccccc4n3)sc21` (configuration not stated): the MIC in the series with Klebsiella pneumoniae [1] was greater than 128 µg/mL; in the series with Klebsiella pneumoniae [2], 32 µg/mL. Also, the “fractional inhibitory concentration index (FICI)” value in the series on Klebsiella pneumoniae [3] came to 1.03.

Turning to `FC(F)(F)c1ccc2nc(Nc3ccccc3)sc2c1`, the MIC against Klebsiella pneumoniae [1] was greater than 128 µg/mL; in the series with Klebsiella pneumoniae [2] it was 16 µg/mL. Moreover, the “fractional inhibitory concentration index (FICI)” value in the series with Klebsiella pneumoniae [3] is on record as 0.53.

Regarding `COC1CCCc2nc(Nc3c(Cl)cccc3Cl)sc21` (configuration not stated), the MIC in the series with Klebsiella pneumoniae [1] was greater than 128 µg/mL; in the series on Klebsiella pneumoniae [2], 1 µg/mL. For the same compound, the “fractional inhibitory concentration index (FICI)” value in the series on Klebsiella pneumoniae [3] stood at 0.06.

Turning to `CCCCOC1CCCc2nc(Nc3ccc(C)cc3)sc21` (configuration not stated), the MIC against Klebsiella pneumoniae [1] is greater than 128 µg/mL; with Klebsiella pneumoniae [2] it was 32 µg/mL. In addition, the “fractional inhibitory concentration index (FICI)” value in the series on Klebsiella pneumoniae [3] came out at 1.03.

`COC1CCCc2nc(NN3CCOCC3)sc21` (configuration not stated): the results for the MIC with Klebsiella pneumoniae [1] and in the series on Klebsiella pneumoniae [2] were greater than 128 µg/mL and 16 µg/mL, respectively. In the series with Klebsiella pneumoniae [3], the “fractional inhibitory concentration index (FICI)” value was 0.53.

Regarding `COC1CCCc2nc(Nc3ccnc(Cl)c3)sc21` (configuration not stated), the MIC with Klebsiella pneumoniae [1] is greater than 128 µg/mL; with Klebsiella pneumoniae [2], 4 µg/mL. In the series with Klebsiella pneumoniae [3], the “fractional inhibitory concentration index (FICI)” value amounted to 0.16.

With `COC1CCCc2nc(Nc3ccc(C#N)cc3)sc21` (configuration not stated), the MIC was greater than 128 µg/mL against Klebsiella pneumoniae [1] and 16 µg/mL in the series on Klebsiella pneumoniae [2]. For the same compound, in the series with Klebsiella pneumoniae [3], the “fractional inhibitory concentration index (FICI)” value is 0.53.

Take `COC1CCCc2nc(Nc3ccc(O)cc3)sc21` (configuration not stated): the MIC is greater than 128 µg/mL against Klebsiella pneumoniae [1] and 32 µg/mL with Klebsiella pneumoniae [2]. For the same compound, the “fractional inhibitory concentration index (FICI)” value in the series with Klebsiella pneumoniae [3] was 1.03.

Turning to `OC1CCCc2nc(Nc3ccc(Cl)cn3)sc21` (configuration not stated), the MIC against Klebsiella pneumoniae [1] is greater than 128 µg/mL; with Klebsiella pneumoniae [2] it was 16 µg/mL. In addition, the “fractional inhibitory concentration index (FICI)” value with Klebsiella pneumoniae [3] was 0.53.

Turning to `OC1CCCc2nc(Nc3ccccc3)sc21` (configuration not stated), the MIC in the series with Klebsiella pneumoniae [1] is greater than 128 µg/mL; in the series with Klebsiella pneumoniae [2], 32 µg/mL. In the series on Klebsiella pneumoniae [3], the “fractional inhibitory concentration index (FICI)” value was found to be 1.03.

In the case of `COC1CCCc2nc(Nc3ccc([N+](=O)[O-])cc3)sc21` (configuration not stated), the figures for the MIC against Klebsiella pneumoniae [1] and in the series on Klebsiella pneumoniae [2] were greater than 128 µg/mL and 16 µg/mL, respectively. In addition, in the series with Klebsiella pneumoniae [3], the “fractional inhibitory concentration index (FICI)” value was determined as 0.53.

In the case of `COC1CCCc2nc(Nc3ccc(N(C)C)cc3)sc21` (configuration not stated), the MIC against Klebsiella pneumoniae [1] was greater than 128 µg/mL; with Klebsiella pneumoniae [2] it was 16 µg/mL. Further, the “fractional inhibitory concentration index (FICI)” value with Klebsiella pneumoniae [3] was 0.53.

For `COC1CCCc2nc(Nc3ccc(C#N)c(C(F)(F)F)c3)sc21` (configuration not stated), the MIC in the series on Klebsiella pneumoniae [1] is greater than 128 µg/mL; in the series on Klebsiella pneumoniae [2] it was 16 µg/mL. Further, in the series on Klebsiella pneumoniae [3], the “fractional inhibitory concentration index (FICI)” value is 0.53.

With `COC1CCCc2nc(Nc3ccc(Cl)cn3)sc21` (configuration not stated), the MIC was greater than 128 µg/mL in the series on Klebsiella pneumoniae [1] and 16 µg/mL in the series with Klebsiella pneumoniae [2]. Also, the “fractional inhibitory concentration index (FICI)” value with Klebsiella pneumoniae [3] was 0.53.

On to `COC1CCCc2nc(Nc3ccc(Br)cc3)sc21` (configuration not stated), for which the MIC in the series on Klebsiella pneumoniae [1] is greater than 128 µg/mL; with Klebsiella pneumoniae [2], 2 µg/mL. The “fold change (FC)” value in the series on Klebsiella pneumoniae [4] is recorded as 16. Further, the “fractional inhibitory concentration index (FICI)” value in the series on Klebsiella pneumoniae [3] worked out at 0.09.

Consider `COC1CCCc2nc(Nc3cccc(C(F)(F)F)c3)sc21` (configuration not stated), for which the MIC with Klebsiella pneumoniae [1] was greater than 128 µg/mL; with Klebsiella pneumoniae [2], 16 µg/mL. Besides, the “fractional inhibitory concentration index (FICI)” value with Klebsiella pneumoniae [3] was determined as 0.53.

Regarding `COC1CCCc2nc(Nc3cccc(Cl)c3)sc21` (configuration not stated), the MIC was greater than 128 µg/mL against Klebsiella pneumoniae [1] and 8 µg/mL in the series on Klebsiella pneumoniae [2]. The “fractional inhibitory concentration index (FICI)” value with Klebsiella pneumoniae [3] came out at 0.28.

Take `COC1CCCc2nc(Nc3nccs3)sc21` (configuration not stated): the MIC in the series with Klebsiella pneumoniae [1] was greater than 128 µg/mL; in the series with Klebsiella pneumoniae [2] it was 32 µg/mL. Besides, the “fractional inhibitory concentration index (FICI)” value in the series with Klebsiella pneumoniae [3] is listed as 1.03.

In the case of `COC1CCCc2nc(Nc3cccc(C)c3C)sc21` (configuration not stated), the MIC against Klebsiella pneumoniae [1] was greater than 128 µg/mL; in the series with Klebsiella pneumoniae [2], 32 µg/mL. In the series with Klebsiella pneumoniae [3], the “fractional inhibitory concentration index (FICI)” value was 1.03.

With `CCCC(CCC)OC1CCCc2nc(Nc3ccc(Cl)cc3)sc21` (configuration not stated), the MIC in the series with Klebsiella pneumoniae [1] was greater than 128 µg/mL; with Klebsiella pneumoniae [2], 4 µg/mL. For the same compound, the “fractional inhibitory concentration index (FICI)” value in the series with Klebsiella pneumoniae [3] is 0.16.
